Values of other authors in patent US20100136094A1, “Systems for modulating inflammation” (Searete LLC, a limited liability corporation of the state …, priority 2008, published 2010).
Each block holds one compound with its values, some of them ahead of it.

Legend:
Src family kinase = settings: Sanjuan et al. 2006
[1] = test system: proteasomal activity in cultured breast cancer cells; settings: on binding copper, Chen et al. 2006
mice = settings: Nakamura et al. 2007
Toll-like receptor 4 = Toll-like receptor 4 (Homo sapiens, UniProt O00206); settings: Nakamura et al. 2007
[2] = 400 mg infused over one hour, single agent; Looareesuwan et al. 1986
[3] = test system: Src family kinases (Src, Lck, Yes, Fyn); settings: at nanomolar concentrations
Epha1 = settings: at nanomolar concentrations

Toll-like receptor 4, sequence (O00206 24-839, species assumed): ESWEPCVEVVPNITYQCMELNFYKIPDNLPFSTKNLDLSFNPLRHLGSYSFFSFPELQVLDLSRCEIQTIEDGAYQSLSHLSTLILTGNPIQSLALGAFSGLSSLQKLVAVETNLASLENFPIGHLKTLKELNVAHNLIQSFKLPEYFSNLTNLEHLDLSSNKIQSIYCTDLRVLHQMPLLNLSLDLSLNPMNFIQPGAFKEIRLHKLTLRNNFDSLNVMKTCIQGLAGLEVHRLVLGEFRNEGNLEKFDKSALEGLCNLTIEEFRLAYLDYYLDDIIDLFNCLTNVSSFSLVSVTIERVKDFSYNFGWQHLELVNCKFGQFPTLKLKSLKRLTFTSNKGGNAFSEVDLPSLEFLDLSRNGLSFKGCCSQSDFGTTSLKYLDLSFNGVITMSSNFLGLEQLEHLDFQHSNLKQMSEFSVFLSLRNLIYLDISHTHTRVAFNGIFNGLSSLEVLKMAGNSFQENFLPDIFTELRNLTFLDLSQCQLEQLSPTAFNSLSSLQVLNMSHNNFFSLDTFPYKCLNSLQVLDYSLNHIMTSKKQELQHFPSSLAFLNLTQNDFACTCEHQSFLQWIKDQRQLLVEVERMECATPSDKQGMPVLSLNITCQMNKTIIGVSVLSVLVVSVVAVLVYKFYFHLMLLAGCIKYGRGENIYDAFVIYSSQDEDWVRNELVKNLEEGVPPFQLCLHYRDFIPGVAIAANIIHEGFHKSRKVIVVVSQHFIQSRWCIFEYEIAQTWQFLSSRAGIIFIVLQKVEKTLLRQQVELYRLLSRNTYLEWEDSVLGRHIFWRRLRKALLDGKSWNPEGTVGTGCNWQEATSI

inhibition of CpG-induced Src family kinase activation, or its dependent cellular responses (Src family kinase): does not inhibit
SMILES: CCN(CC)CCCC(C)Nc1ccnc2cc(Cl)ccc12 (centres unmarked) [Chloroquine]

SMILES: CCN(CC)C(=S)SSC(=S)N(CC)CC [Disulfiram, 1-(diethylthiocarbamoyldisulfanyl)-N,N-diethyl-methanethioamide]
proteasomal activity [1]: inhibits proteasomal activity
inhibition of aldehyde dehydrogenase (aldehyde dehydrogenase): inhibits aldehyde dehydrogenase without toxicity

SMILES: Cl.Cl.Nc1ccccc1Oc1ccc2c(N)nsc2c1 [Example M62812, 3-amino-6-(2-aminophenoxy)-1,2-benzisothiazole dihydrochloride]
prevention of lethal septic shock (mice): prevents lethal septic shock
inhibition of Toll-like receptor 4 (Toll-like receptor 4): inhibitor

SMILES: CCN(CC)CCCC(C)Nc1ccnc2cc(Cl)ccc12.O=P(O)(O)O.O=P(O)(O)O (centres unmarked) [chloroquine phosphate, 7-chloro-4-[[4-(diethylamino)-1-methylbutyl]amino]quinoline phosphate (1:2)]
tolerability of intravenous infusion [2]: without complication

SMILES: Cc1nc(Nc2ncc(C(=O)Nc3c(C)cccc3Cl)s2)cc(N2CCN(CCO)CC2)n1.O [dasatinib, N-(2-chloro-6-methylphenyl)-2-[[6-[4-(2-hydroxyethyl)-1-piperazinyl]-2-methyl-4-pyrimidinyl]amino]-5-thiazolecarboxamide, monohydrate]
inhibition of Src family kinases (Src, Lck, Yes, Fyn) [3]: inhibits
inhibition of Epha1 (Epha1): inhibits
